# How the values were obtained:
# Assay type in all cases: functional
# Lolium rigidum [1] = assay: Herbicidal activity against Lolium rigidum accession A11 assessed as fresh weight reduction applied at 1 times pre-emergence recommended rate relative to untreated control; set-up: scale not given: the % may be the effect or the level left
# Lolium rigidum [2] = assay: Herbicidal activity against Lolium rigidum accession A15 assessed as fresh weight reduction applied at 1 times pre-emergence recommended rate relative to untreated control; set-up: scale not given: the % may be the effect or the level left
# Lolium rigidum [3] = assay: Herbicidal activity against Lolium rigidum accession A08 assessed as fresh weight reduction applied at 1 times pre-emergence recommended rate relative to untreated control; set-up: scale not given: the % may be the effect or the level left
# Lolium rigidum [4] = assay: Herbicidal activity against Lolium rigidum accession A13 assessed as fresh weight reduction applied at 1 times pre-emergence recommended rate relative to untreated control; set-up: scale not given: the % may be the effect or the level left
# Lolium rigidum [5] = assay: Herbicidal activity against Lolium rigidum accession A12 assessed as fresh weight reduction applied at 1 times pre-emergence recommended rate relative to untreated control; set-up: scale not given: the % may be the effect or the level left
# Lolium rigidum [6] = assay: Herbicidal activity against Lolium rigidum accession A01 assessed as emergence rate applied at 1 times pre-emergence recommended rate relative to untreated control
# Lolium rigidum [7] = assay: Herbicidal activity against Lolium rigidum accession A07 assessed as fresh weight reduction applied at 1 times pre-emergence recommended rate relative to untreated control; set-up: scale not given: the % may be the effect or the level left
# Lolium rigidum [8] = assay: Herbicidal activity against Lolium rigidum accession A07 assessed as emergence rate applied at 1 times pre-emergence recommended rate relative to untreated control
# Lolium rigidum [9] = assay: Herbicidal activity against Lolium rigidum accession A12 assessed as emergence rate applied at 1 times pre-emergence recommended rate relative to untreated control
# Lolium rigidum [10] = assay: Herbicidal activity against Lolium rigidum accession A02 assessed as emergence rate applied at 1 times pre-emergence recommended rate relative to untreated control
# Lolium rigidum [11] = assay: Herbicidal activity against Lolium rigidum accession A15 assessed as emergence rate applied at 1 times pre-emergence recommended rate relative to untreated control
# Lolium rigidum [12] = assay: Herbicidal activity against Lolium rigidum accession A04 assessed as emergence rate applied at 1 times pre-emergence recommended rate relative to untreated control
# Lolium rigidum [13] = assay: Herbicidal activity against Lolium rigidum accession A14 assessed as emergence rate applied at 1 times pre-emergence recommended rate relative to untreated control
# Lolium rigidum [14] = assay: Herbicidal activity against Lolium rigidum accession A10 assessed as fresh weight reduction applied at 1 times pre-emergence recommended rate relative to untreated control; set-up: scale not given: the % may be the effect or the level left
# Lolium rigidum [15] = assay: Herbicidal activity against Lolium rigidum accession A11 assessed as emergence rate applied at 1 times pre-emergence recommended rate relative to untreated control
# Lolium rigidum [16] = assay: Herbicidal activity against Lolium rigidum accession A01 assessed as fresh weight reduction applied at 1 times pre-emergence recommended rate relative to untreated control; set-up: scale not given: the % may be the effect or the level left
# Lolium rigidum [17] = assay: Herbicidal activity against Lolium rigidum accession A02 assessed as fresh weight reduction applied at 1 times pre-emergence recommended rate relative to untreated control; set-up: scale not given: the % may be the effect or the level left
# Lolium rigidum [18] = assay: Herbicidal activity against Lolium rigidum accession A03 assessed as emergence rate applied at 1 times pre-emergence recommended rate relative to untreated control
# Lolium rigidum [19] = assay: Herbicidal activity against Lolium rigidum accession A04 assessed as fresh weight reduction applied at 1 times pre-emergence recommended rate relative to untreated control; set-up: scale not given: the % may be the effect or the level left
# Lolium rigidum [20] = assay: Herbicidal activity against Lolium rigidum accession A09 assessed as fresh weight reduction applied at 1 times pre-emergence recommended rate relative to untreated control; set-up: scale not given: the % may be the effect or the level left
# Lolium rigidum [21] = assay: Herbicidal activity against Lolium rigidum accession A06 assessed as fresh weight reduction applied at 1 times pre-emergence recommended rate relative to untreated control; set-up: scale not given: the % may be the effect or the level left
# Lolium rigidum [22] = assay: Herbicidal activity against Lolium rigidum accession A05 assessed as fresh weight reduction applied at 1 times pre-emergence recommended rate relative to untreated control; set-up: scale not given: the % may be the effect or the level left
# Lolium rigidum [23] = assay: Herbicidal activity against Lolium rigidum accession A08 assessed as emergence rate applied at 1 times pre-emergence recommended rate relative to untreated control
# Lolium rigidum [24] = assay: Herbicidal activity against Lolium rigidum accession A14 assessed as fresh weight reduction applied at 1 times pre-emergence recommended rate relative to untreated control; set-up: scale not given: the % may be the effect or the level left
# Lolium rigidum [25] = assay: Herbicidal activity against Lolium rigidum accession A09 assessed as emergence rate applied at 1 times pre-emergence recommended rate relative to untreated control
# Lolium rigidum [26] = assay: Herbicidal activity against Lolium rigidum accession A03 assessed as fresh weight reduction applied at 1 times pre-emergence recommended rate relative to untreated control; set-up: scale not given: the % may be the effect or the level left
# Lolium rigidum [27] = assay: Herbicidal activity against Lolium rigidum accession A10 assessed as emergence rate applied at 1 times pre-emergence recommended rate relative to untreated control
# Lolium rigidum [28] = assay: Herbicidal activity against Lolium rigidum accession A05 assessed as emergence rate applied at 1 times pre-emergence recommended rate relative to untreated control
# Lolium rigidum [29] = assay: Herbicidal activity against Lolium rigidum accession A13 assessed as emergence rate applied at 1 times pre-emergence recommended rate relative to untreated control
# Lolium rigidum [30] = assay: Herbicidal activity against Lolium rigidum accession A06 assessed as emergence rate applied at 1 times pre-emergence recommended rate relative to untreated control
# Lolium rigidum [31] = assay: Herbicidal activity against Lolium rigidum accession A05 assessed as fresh weight reduction applied at recommended rate incorporated into the soil prior weed seedlings relative to untreated control; set-up: scale not given: the % may be the effect or the level left
# Lolium rigidum [32] = assay: Herbicidal activity against Lolium rigidum accession A15 assessed as fresh weight reduction applied at recommended rate incorporated into the soil prior weed seedlings relative to untreated control; set-up: scale not given: the % may be the effect or the level left
# Lolium rigidum [33] = assay: Herbicidal activity against Lolium rigidum accession A14 assessed as emergence rate applied at recommended rate incorporated into the soil prior weed seedlings relative to untreated control
# Lolium rigidum [34] = assay: Herbicidal activity against Lolium rigidum accession A01 assessed as fresh weight reduction applied at recommended rate incorporated into the soil prior weed seedlings relative to untreated control; set-up: scale not given: the % may be the effect or the level left
# Lolium rigidum [35] = assay: Herbicidal activity against Lolium rigidum accession A05 assessed as emergence rate applied at recommended rate incorporated into the soil prior weed seedlings relative to untreated control
# Lolium rigidum [36] = assay: Herbicidal activity against Lolium rigidum accession A04 assessed as fresh weight reduction applied at recommended rate incorporated into the soil prior weed seedlings relative to untreated control; set-up: scale not given: the % may be the effect or the level left
# Lolium rigidum [37] = assay: Herbicidal activity against Lolium rigidum accession A07 assessed as emergence rate applied at recommended rate incorporated into the soil prior weed seedlings relative to untreated control
# Lolium rigidum [38] = assay: Herbicidal activity against Lolium rigidum accession A14 assessed as fresh weight reduction applied at recommended rate incorporated into the soil prior weed seedlings relative to untreated control; set-up: scale not given: the % may be the effect or the level left
# Lolium rigidum [39] = assay: Herbicidal activity against Lolium rigidum accession A09 assessed as fresh weight reduction applied at recommended rate incorporated into the soil prior weed seedlings relative to untreated control; set-up: scale not given: the % may be the effect or the level left
# Lolium rigidum [40] = assay: Herbicidal activity against Lolium rigidum accession A13 assessed as fresh weight reduction applied at recommended rate incorporated into the soil prior weed seedlings relative to untreated control; set-up: scale not given: the % may be the effect or the level left
# Lolium rigidum [41] = assay: Herbicidal activity against Lolium rigidum accession A11 assessed as fresh weight reduction applied at recommended rate incorporated into the soil prior weed seedlings relative to untreated control; set-up: scale not given: the % may be the effect or the level left
# Lolium rigidum [42] = assay: Herbicidal activity against Lolium rigidum accession A13 assessed as emergence rate applied at recommended rate incorporated into the soil prior weed seedlings relative to untreated control
# Lolium rigidum [43] = assay: Herbicidal activity against Lolium rigidum accession A08 assessed as emergence rate applied at recommended rate incorporated into the soil prior weed seedlings relative to untreated control
# Lolium rigidum [44] = assay: Herbicidal activity against Lolium rigidum accession A10 assessed as fresh weight reduction applied at recommended rate incorporated into the soil prior weed seedlings relative to untreated control; set-up: scale not given: the % may be the effect or the level left
# Lolium rigidum [45] = assay: Herbicidal activity against Lolium rigidum accession A15 assessed as emergence rate applied at recommended rate incorporated into the soil prior weed seedlings relative to untreated control
# Lolium rigidum [46] = assay: Herbicidal activity against Lolium rigidum accession A06 assessed as emergence rate applied at recommended rate incorporated into the soil prior weed seedlings relative to untreated control
# Lolium rigidum [47] = assay: Herbicidal activity against Lolium rigidum accession A09 assessed as emergence rate applied at recommended rate incorporated into the soil prior weed seedlings relative to untreated control
# Lolium rigidum [48] = assay: Herbicidal activity against Lolium rigidum accession A12 assessed as emergence rate applied at recommended rate incorporated into the soil prior weed seedlings relative to untreated control
# Lolium rigidum [49] = assay: Herbicidal activity against Lolium rigidum accession A11 assessed as emergence rate applied at recommended rate incorporated into the soil prior weed seedlings relative to untreated control
# Lolium rigidum [50] = assay: Herbicidal activity against Lolium rigidum accession A03 assessed as fresh weight reduction applied at recommended rate incorporated into the soil prior weed seedlings relative to untreated control; set-up: scale not given: the % may be the effect or the level left
# Lolium rigidum [51] = assay: Herbicidal activity against Lolium rigidum accession A04 assessed as emergence rate applied at recommended rate incorporated into the soil prior weed seedlings relative to untreated control
# Lolium rigidum [52] = assay: Herbicidal activity against Lolium rigidum accession A08 assessed as fresh weight reduction applied at recommended rate incorporated into the soil prior weed seedlings relative to untreated control; set-up: scale not given: the % may be the effect or the level left
# Lolium rigidum [53] = assay: Herbicidal activity against Lolium rigidum accession A01 assessed as emergence rate applied at recommended rate incorporated into the soil prior weed seedlings relative to untreated control
# Lolium rigidum [54] = assay: Herbicidal activity against Lolium rigidum accession A02 assessed as fresh weight reduction applied at recommended rate incorporated into the soil prior weed seedlings relative to untreated control; set-up: scale not given: the % may be the effect or the level left
# Lolium rigidum [55] = assay: Herbicidal activity against Lolium rigidum accession A07 assessed as fresh weight reduction applied at recommended rate incorporated into the soil prior weed seedlings relative to untreated control; set-up: scale not given: the % may be the effect or the level left
# Lolium rigidum [56] = assay: Herbicidal activity against Lolium rigidum accession A10 assessed as emergence rate applied at recommended rate incorporated into the soil prior weed seedlings relative to untreated control
# Lolium rigidum [57] = assay: Herbicidal activity against Lolium rigidum accession A06 assessed as fresh weight reduction applied at recommended rate incorporated into the soil prior weed seedlings relative to untreated control; set-up: scale not given: the % may be the effect or the level left
# Lolium rigidum [58] = assay: Herbicidal activity against Lolium rigidum accession A02 assessed as emergence rate applied at recommended rate incorporated into the soil prior weed seedlings relative to untreated control
# Lolium rigidum [59] = assay: Herbicidal activity against Lolium rigidum accession A12 assessed as fresh weight reduction applied at recommended rate incorporated into the soil prior weed seedlings relative to untreated control; set-up: scale not given: the % may be the effect or the level left
# Lolium rigidum [60] = assay: Herbicidal activity against Lolium rigidum accession A03 assessed as emergence rate applied at recommended rate incorporated into the soil prior weed seedlings relative to untreated control
smiles,measurement,setting,value
CCCN(CCC)C(=O)SCc1ccccc1 [PROSULFOCARB],Activity,Lolium rigidum [1],99%
same,Activity,Lolium rigidum [2],100%
same,Activity,Lolium rigidum [3],100%
same,Activity,Lolium rigidum [4],100%
same,Activity,Lolium rigidum [5],100%
same,Activity,Lolium rigidum [6],0%
same,Activity,Lolium rigidum [7],100%
same,Activity,Lolium rigidum [8],0%
same,Activity,Lolium rigidum [9],0%
same,Activity,Lolium rigidum [10],0%
same,Activity,Lolium rigidum [11],0%
same,Activity,Lolium rigidum [12],1%
same,Activity,Lolium rigidum [13],0%
same,Activity,Lolium rigidum [14],100%
same,Activity,Lolium rigidum [15],1%
same,Activity,Lolium rigidum [16],100%
same,Activity,Lolium rigidum [17],100%
same,Activity,Lolium rigidum [18],0%
same,Activity,Lolium rigidum [19],98%
same,Activity,Lolium rigidum [20],100%
same,Activity,Lolium rigidum [21],100%
same,Activity,Lolium rigidum [22],100%
same,Activity,Lolium rigidum [23],0%
same,Activity,Lolium rigidum [24],100%
same,Activity,Lolium rigidum [25],0%
same,Activity,Lolium rigidum [26],100%
same,Activity,Lolium rigidum [27],0%
same,Activity,Lolium rigidum [28],0%
same,Activity,Lolium rigidum [29],0%
same,Activity,Lolium rigidum [30],0%
CCOP(=S)(OCC)SCSC(C)(C)C [TERBUFOS],Activity,Lolium rigidum [31],1%
same,Activity,Lolium rigidum [32],0%
same,Activity,Lolium rigidum [33],94%
same,Activity,Lolium rigidum [34],0%
same,Activity,Lolium rigidum [35],95%
same,Activity,Lolium rigidum [36],0%
same,Activity,Lolium rigidum [37],93%
same,Activity,Lolium rigidum [38],1%
same,Activity,Lolium rigidum [39],0%
same,Activity,Lolium rigidum [40],0%
same,Activity,Lolium rigidum [41],0%
same,Activity,Lolium rigidum [42],100%
same,Activity,Lolium rigidum [43],100%
same,Activity,Lolium rigidum [44],0%
same,Activity,Lolium rigidum [45],99%
same,Activity,Lolium rigidum [46],97%
same,Activity,Lolium rigidum [47],99%
same,Activity,Lolium rigidum [48],93%
same,Activity,Lolium rigidum [49],98%
same,Activity,Lolium rigidum [50],0%
same,Activity,Lolium rigidum [51],100%
same,Activity,Lolium rigidum [52],0%
same,Activity,Lolium rigidum [53],99%
same,Activity,Lolium rigidum [54],0%
same,Activity,Lolium rigidum [55],0%
same,Activity,Lolium rigidum [56],95%
same,Activity,Lolium rigidum [57],0%
same,Activity,Lolium rigidum [58],97%
same,Activity,Lolium rigidum [59],2%
same,Activity,Lolium rigidum [60],98%

# From ChEMBL document CHEMBL3046358, “Multiple Pro-197 substitutions in the acetolactate synthase of rigid ryegrass (Lolium rigidum) and their impact on chlorsulfuron activity and plant growth” (Crop Prot, 2012)
